Measured values taken from patent publication US9777037B2, “Neurosteroid compounds” (BIONATURE E. A. LTD., priority 2007, dated 2017).

Columns and labels:
[1] = system: Neural-crest derived PC12 cells; test: APOPercentage apoptosis assay, serum-deprivation induced apoptosis of PC12 cells; format: cell-based, rat; conditions: for IC50: Rattus norvegicus, PC-12, absence of serum 12 hours, ApoPercentage assay (FIG. 2), read-out: IC50 of anti-apoptotic, cytoprotective effect
Procedure: Neural-crest derived PC12 cells were maintained in culture at 5% CO2, at 37° C., in RPMI 1640 medium containing 2 mM L-glutamine, 15 mM HEPES, 100 units/ml penicillin, 0.1 mg/ml streptomycin, 10% horse serum, and 5% foetal calf serum. Serum free medium was supplemented with 1% bovine serum albumin (BSA). Different steroids, used at various concentrations, were initially diluted in ethanol. The final concentration of ethanol in each well, including controls was 0.01%. Conjugate DHEA-BSA was initially diluted in Phosphate Buffer Saline (PBS).
Cells were cultured in the absence of serum for 12 hours, supplemented with DHEA and various synthetic spiro neurosteroids at 10 nM. Cell apoptosis was quantitated with two different methods: The APOPercentage Apoptosis Assay (Biocolor Ltd., Belfast, N. Ireland) was used to quantify apoptosis, according to the manufacturer's instructions. Apoptosis was quantified following cell lysis by measuring the dye incorporated in apoptotic cells at 550 nm (reference filter 620 nm) using a colour filter microplate colorimeter (Dynatech MicroElisa reader, Chantilly, Va.) (see FIGS. 1 and 2). FACS Analysis: FACS analysis of apoptotic cells was performed according to our protocol (Proc Natl Acad Sci USA 101,8209 (2004)). Flow cytometry was performed with FACScan (Becton Dickinson, Heidelberg, Germany) and the results were analysed with the FACScan and Cell Quest softwares (see FIG. 3).

[2] = system: Bcl-2 and Bcl-xL proteins; test: Western blot of anti-apoptotic Bcl-2 and Bcl-xL proteins in serum-deprived PC12 cells; format: cell-based, rat; conditions: 10 nM neurosteroid (FIG. 4)
Procedure: Neural-crest derived PC12 cells were cultured for 8 hours in the absence of serum, but supplemented with 10 nM of various neurosteroids. At the end of incubation cell lysates were subjected to electrophoresis through a 12% SDS-polyacrylamide gel. Then, proteins were transferred to nitrocellulose membranes, which were processed according to standard Western blotting procedures. To detect protein levels, membranes were incubated with the appropriate antibodies: Bcl-2, (Santa Cruz Biotechnology Inc., Santa Cruz, Calif., dilution 1:100) Bcl-xL (Cell Signalling Technology Inc., Beverly, Mass., dilution 1:100). A PC-based Image Analysis program was used to quantify the intensity of each band (Image Analysis, Inc., Ontario, Canada). To normalize for protein content, the blots were stripped and stained with anti-actin antibodies (Chemicon, Temecula, Calif., dilution 1:400); the concentration of each target protein was normalized versus actin.

[3] = system: DHEA specific membrane receptors; test: [3H]DHEA competition binding on isolated PC12 cell membranes; design: species or system rat; conditions: for Kd: isolated PC12 cell membranes, 5 nM [3H]DHEA (FIG. 5)
Procedure: PC12 rat sympathoadrenal cells were cultured in 225 cm^2 flasks and, after washing twice with PBS, they were detached from the flasks by vigorous shaking. After a centrifugation at 1500 g, they were homogenized by sonication, in a 50 mM Tris-HCl buffer pH 7.4 at 4° C., containing freshly added protease inhibitors (1 mM PMSF and 1 μg/ml aprotinin). Unbroken cells were removed by centrifugation at 1500 g (10 min at 4° C.), and membranes were collected by centrifuging at 102,000 g for 1 hr at 4° C. Membranes were washed once with Tris-HCl, briefly acidified at 4° C. (for 3 min) with 50 mM glycine (pH 5.0), and re-suspended in the same buffer. Protein content was assayed by the method of Bradford, using reagents from Bio-Rad (Hercules, Calif.). Membranes (at a final concentration of 2 mg/ml) were incubated with 5 nM [^3H]DHEA, in the absence (to determine the total binding) or presence of unlabeled neurosteroids and their synthetic spiro analogs, at concentrations varying from 10^−12 to 10^−6 M and at a final volume of 100 μl, in Tris-HCl buffer (50 mM, pH 7.4). Following a […] incubation in a water bath, at 37° C., membranes were collected on GF/B filters, prewet in 0.5% PEI solution at 4° C. The filters were washed three times with ice-cold Tris-HCl, dried, supplemented with scintillation medium (Sigma Hellas, Athens, Greece) and counted in a β-scintillation counter (Perkin Elmer, Foster City, Calif.) with 60% efficiency for Tritium.

[4] = system: Dopaminergic neural-crest derived PC12 cells; test: Dopamine secretion from dopaminergic PC12 cells (radioimmunoassay); format: cell-based, rat; conditions: 10^-7 M; for dopamine levels in culture media, long-term: 3 to 48 hours (FIG. 6B); for stimulation of dopamine secretion, short-term: 5 to 30 min, effect within 10 min (FIG. 6A)
Procedure: Dopaminergic neural-crest derived PC12 cells were grown in 6-well plates, coated with poly-L-lysine, at a concentration of 10^6 cells/well. Cells were incubated with neurosteroids or the vehicle for several time periods; for the short-term experiments the incubation time ranged from 5 to 30 minutes and for the long-term from 3 to 48 hours. 1 mL of supernatants were transferred to tubes containing 200 μl 0.1 M HCl for measurement of dopamine, which was measured by radioimmunoassay (TriCat™ RIA, RE29395, IBL Immuno Biological Lab., Hamburg, Germany) using ^125I as a tracer. The analytical sensitivity of the method was 30 pg/ml, its intra-assay CV was 9.5%, and its inter-assay CV was 16.7%. The cross reactivity between dopamine and norepinephrine was <0.013%

[5] = system: tyrosine hydroxylase mRNA; test: Tyrosine hydroxylase (TH) RT-PCR in dopaminergic PC12 cells; format: cell-based, rat; conditions: dopaminergic PC12 cells (FIG. 6C)
Procedure: Tyrosine Hydroxylase (TH) RT-PCR: Total RNA was extracted from dopaminergic PC12 cells using the Trizol Reagent (Invitrogen Life technologies, CA). One microgram of total RNA was reverse transcribed by the Thermo-Script RT-PCR System (Invitrogen) using random hexamers in a total volume of 20 μl. Two microliters of the RT product was used as a template, amplified by PCR using 2 mM MgCl2, one strength PCR buffer, 0.2 mM of sense and antisense primers, 0.2 mM dNTPs and 2.5 U AmpliTaq Gold DNA polymerase (Perkin Elmer ABD, Foster City, Calif.) in a final reaction volume of 50 μl. PCR was performed in a Perkin Elmer DNA Thermal Cycler. Primers for TH were 5′-[…]-3′ (sense), and 5-[…]-3 (antisense) and for G3PDH were, 5′-[…]-3′ (sense), and 5′-[…]-3′ (antisense). Oligonucleotides were synthesized by MWG-Biotech AG (Munich, Germany). After reverse transcription, the cDNA product was amplified by PCR, at 33 cycles. The cycle number (33) was chosen such that amplification of the products was in the linear range with respect to the amount of input cDNA. PCR for G3PDH was performed in parallel to assure good quality of RNA and cDNA preparations. Each cycle consisted of 60 s at 92° C. for denaturation, 120 s at 53° C. for annealing, and 180 s at 72° C. for extension (60 s at 98° C., 90 s at 55° C., and 150 s at 72° C. for G3PDH respectively). 10 μl of the amplified products (368 bp for TH and 983 bp for G3PDH) were separated on a 2% agarose gel and visualized by ethidium bromide staining.

[6] = system: Primary cortical neurospheres; test: Migration of neural cells from primary cortical neurospheres; format: cell-based, mouse; conditions: 10^-7 M, within 24-48 hrs of culture, EGF/bFGF dependent (FIG. 7)
Procedure: Primary cortical neurospheres (21d) generated from wild type mice were cultured attached on PLL and laminin-coated coverslips in serum-free media in the presence or absence of EGF and bFGF (20 ng/ml final concentration each). For the screen, the media was supplemented with ethanol, retinoic acid (at-RA), DHEA, or the synthetic spiro neurosteroid BNN-93, at a final concentration of 10^−7M.

[7] = system: progenitor neural cells; test: Neurogenesis of progenitor neural cells isolated from mouse fetal brain; format: cell-based; conditions: 100 nM, 24 hours (FIG. 8)
Procedure: This effect appeared to be EGF/bFGF dependent. […] The extent of migration of the first days in culture was mostly normalised as in most conditions cells had migrated out of the sphere to the periphery. The photographs shown (FIG. 7) were obtained on the 6th day of culture where migration effects are not so dramatic but still evident. Additionally, progenitor neural cells, isolated from mouse fetal brain, were exposed for 24 hours to 100 nM of BNN-93 or to the vehicle (control).

[8] = target: T1, TrkA NGF receptors (Homo sapiens, UniProt P04629); test: [3H]DHEA competition binding on membranes from HEK293 TrkA cells; conditions: membranes from HEK293 TrkA cells (FIG. 9)
T1 construct: expressed in transfected cells; host or cells: HEK293
Procedure: (§1) HEK293 cells were transfected with the cDNAs of TrkA and p75NTR, the high and low affinity receptors for nerve growth factor (NGF) (Ann Rev Biochem 72:604, 2003). Transfectants expressing the two NGF receptor subtypes were cultured in flasks and, after washing twice with PBS, they were detached from the flasks. After a centrifugation at 1500 g, they were homogenized by sonication, in a 50 mM Tris-HCl buffer pH 7.4 at 4° C., containing freshly added protease inhibitors (1 mM PMSF and 1 μg/ml aprotinin). Unbroken cells were removed by centrifugation at 1500 g (10 min at 4° C.), and membranes were collected by centrifuging at 102,000 g for 1 hr at 4° C. Membranes were washed once with Tris-HCl, briefly acidified at 4° C. (for 3 min) with 50 mM glycine (pH 5.0), and re-suspended in the same buffer. Protein content was assayed by the method of Bradford, using reagents from Bio-Rad (Hercules, Calif.). Membranes (at a final concentration of 2 mg/ml) were incubated with 5 nM [^3H]DHEA, in the absence (to determine the total binding) or presence of unlabelled BNN-124 at concentrations varying from 10^−12 to 10^−6 M and at a final volume of 100 μl, in Tris-HCl buffer (50 mM, pH 7.4). […] The filters were washed three times with ice-cold Tris-HCl, dried and counted in a β-scintillation counter (Perkin Elmer, Foster City, Calif.) with 60% efficiency for tritium.

[9] = target: T2, p75NTR NGF receptors (Homo sapiens, UniProt P08138); test: [3H]DHEA competition binding on membranes from HEK293 p75NTR cells; conditions: membranes from HEK293 p75NTR cells (FIG. 9)
T2 construct: expressed in transfected cells; host or cells: HEK293
T2 sequence (P08138 29-427): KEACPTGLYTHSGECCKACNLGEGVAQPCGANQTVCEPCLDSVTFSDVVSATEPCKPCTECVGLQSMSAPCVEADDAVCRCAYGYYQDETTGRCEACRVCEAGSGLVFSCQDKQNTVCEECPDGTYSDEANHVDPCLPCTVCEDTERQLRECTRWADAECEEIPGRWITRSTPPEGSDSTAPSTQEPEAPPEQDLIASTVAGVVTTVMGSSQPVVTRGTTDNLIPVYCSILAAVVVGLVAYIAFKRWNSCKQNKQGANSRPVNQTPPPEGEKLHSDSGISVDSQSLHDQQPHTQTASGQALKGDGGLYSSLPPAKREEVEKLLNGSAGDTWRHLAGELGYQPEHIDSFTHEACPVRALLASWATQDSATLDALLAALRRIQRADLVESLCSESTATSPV
Procedure: as §1

[10] = system: Bcl-2 protein and ERK1/2 kinase; test: Western blot of Bcl-2 and phosphorylated ERK1/2 in serum deprived PC12 cells; format: cell-based, rat; conditions: 8 hours, 10 nM BNN-124 or 20 ng/ml NGF (FIG. 9)
Procedure: Neural-crest derived PC12 cells were cultured for 8 hours in the absence of serum, but supplemented with 10 nM of synthetic neurosteroids of 20 ng/ml of NGF. At the end of incubation cell lysates were subjected to electrophoresis through a 12% SDS-polyacrylamide gel. Then proteins were transferred to nitrocellulose membranes, which were processed according to standard Western blotting procedures. To detect protein levels, membranes were incubated with the appropriate antibodies: Bcl-2 (Santa Cruz Biotechnology Inc., Santa Cruz, Calif., dilution 1:100), phosphorylated ERK1/2 (Cell Signalling Technology Inc., Beverly, Mass., dilution 1:100). To normalize for protein content, the blots were stripped and stained with anti-actin or anti-total ERK1/2 antibodies (Chemicon, Temecula, Calif., dilution 1:400).

T1 sequence (P04629 33-796): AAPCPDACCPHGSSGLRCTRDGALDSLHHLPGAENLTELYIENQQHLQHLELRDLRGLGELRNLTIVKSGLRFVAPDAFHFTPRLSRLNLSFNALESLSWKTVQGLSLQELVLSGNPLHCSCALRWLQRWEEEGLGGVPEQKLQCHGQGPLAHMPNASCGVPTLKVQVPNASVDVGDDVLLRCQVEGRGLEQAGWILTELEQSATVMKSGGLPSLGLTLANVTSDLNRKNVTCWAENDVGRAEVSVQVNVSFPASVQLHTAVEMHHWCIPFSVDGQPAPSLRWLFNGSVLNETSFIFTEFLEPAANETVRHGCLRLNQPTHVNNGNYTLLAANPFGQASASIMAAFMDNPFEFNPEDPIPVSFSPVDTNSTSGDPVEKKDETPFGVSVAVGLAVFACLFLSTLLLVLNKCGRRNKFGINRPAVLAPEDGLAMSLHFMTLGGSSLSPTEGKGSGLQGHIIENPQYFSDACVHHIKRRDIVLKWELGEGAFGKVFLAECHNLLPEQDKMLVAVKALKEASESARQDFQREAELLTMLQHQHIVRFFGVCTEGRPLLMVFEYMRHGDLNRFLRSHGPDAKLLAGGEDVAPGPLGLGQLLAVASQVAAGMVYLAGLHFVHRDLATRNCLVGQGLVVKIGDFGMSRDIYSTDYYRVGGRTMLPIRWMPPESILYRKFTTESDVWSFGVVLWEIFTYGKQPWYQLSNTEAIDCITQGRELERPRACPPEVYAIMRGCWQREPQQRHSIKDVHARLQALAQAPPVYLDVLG

Row | Compound | IC50 [1] [nM] | levels of anti-apoptotic Bcl-2 and Bcl-xL proteins [2] | displacement of specific [3H]DHEA binding ([3]; at 1 μM, PC12 cell membranes) | Kd [3] [nM] | dopamine levels in culture media, long-term [4] | stimulation of dopamine secretion, short-term [4] | induction of tyrosine hydroxylase mRNA [5] | migration of neural cells to the periphery of the neurospheres [6] | neurogenesis and differentiation of progenitors to neural cells [7] | Kd [8] [nM] | Kd [9] [nM] | induction of anti-apoptotic Bcl-2 protein and phosphorylation of ERK1/2 kinase [10] | reversal of serum deprivation-induced apoptosis ([1]; absence of serum 12 hours, steroids at 10 nM (FIG. 1)) [%] | competition for [3H]DHEA binding ([3]; at 1 μM, PC12 cell membranes)
1 | C[C@]12CC[C@H](O)CC1=CCC1C2CC[C@@]2(C)C1CC[C@@]21OC1CO (stereo partly drawn) [BNN-93, 3β,21-dihydroxy-17α,20-epoxy-5-pregnene] | 4.16 | preventing this effect | approximately 60% | 11.2 | increase of dopamine levels peaking at 24 h | doubling their levels | strong induction | extensive migration | stimulated neurogenesis and differentiation | – | – | – | – | –
2 | C[C@]12CC[C@H](O)CC1=CCC1C2CC[C@@]2(C)C1CC[C@]21O[C@H]1CO (stereo partly drawn) [BNN-124, (20S)-3β,21-dihydroxy-17β,20-epoxy-5-pregnene] | 68.4 | preventing this effect | approximately 60% | 0.33 | – | – | – | – | – | 0.29 | 1 | same effect | – | –
3 | C[C@]12CC[C@H](O)CC1=CC[C@@H]1[C@@H]2CC[C@]2(C)C(=O)CC[C@@H]12 [DHEA, dehydroepiandrosterone, reference compound] | 0.15 | preventing this effect | – | 1.1 | – | doubling their levels | – | extensive migration | – | – | – | – | ~50 | Almost complete competition
4 | C[C@]12CC[C@H](OS(=O)(=O)O)CC1=CC[C@@H]1[C@@H]2CC[C@]2(C)C(=O)CC[C@@H]12 [DHEAS, reference compound] | – | – | – | – | increase of dopamine levels peaking at 24 h | – | strong induction | – | – | – | – | – | – | –
5 | NGF: nerve growth factor | – | – | – | – | – | – | – | – | – | – | – | inducing | – | –
